# Literature values as cited in patent US10485789B2, “Compositions and methods for targeting receptors expressed in the gut” (Sensor Pharmaceuticals, Inc., priority 2014, dated 2019).
# Tested on: DSS injury model
# Settings: mice pretreated with antibiotics
compound,measurement,value
O=C(O)c1cccnc1 [niacin],effect in the DSS injury model,dramatic effect
